Assay results from patent publication US20240335383A1, “NANOPARTICULATE FORMULATION” (NewImmune II, LLC, priority 2021, published 2024).
Read-outs that look alike come from different tables or passages of the source.

How the values were obtained:
[1] = design: species or system human
Description: The efficacy of the presently disclosed compositions and nanoparticles allows for the administration of relatively low doses.

[2] = rats, oral, repeated dose up to 6 months; cited from earlier work
[3] = mice, dermal exposure; cited from earlier work
[4] = monkeys, oral, repeated dose up to 6 months; cited from earlier work
[5] = mice, rats, and monkeys; adverse effects limited to the central nervous system; cited from earlier work
[6] = EMA toxicology review of Aldara; cited from earlier work
[7] = Britton-Robinson buffer, FIG. 1
[8] = imiquimod; cited from earlier work
T effector memory cells = settings: Fiorenza et al, 2012; cited from earlier work
[9] = 30 mg subcutaneous dose, healthy human volunteers; cited from earlier work
[10] = rabbits, doses of 2000 and 5000 mg/kg under occlusion; cited from earlier work
[11] = tested on: mesothelioma, renal cell carcinoma and 4T1 breast cancer; settings: mouse models, cited from earlier work
[12] = pregnant female rabbits, intravenous, gestational Days 6-18; cited from earlier work
[13] = injected subcutaneously into patients; cited from earlier work
[14] = rats, single subcutaneous dose; cited from earlier work
IL-2 stimulated B cells = settings: Glaum et al, 2009; cited from earlier work

Molecule: 2-hydroxypropyl-β-cyclodextrin [HP-β-CD]
- Safety Factor (excipient dose from approved drug vs excipient dose from NP) [1]: 11-fold

Molecule: CC(C)Cn1cnc2c(N)nc3ccccc3c21 [imiquimod, 1-(2-methylpropyl)imidazo[4,5-c]quinolin-4-amine]
- no observed adverse effect level (NOAEL) [2]: 3 mg/kg
- carcinogenicity: incidence of tumors or non-neoplastic lesions [3]: no increase in the incidence of tumors or non-neoplastic lesions
- no observed adverse effect level (NOAEL) [4]: 3 mg/kg
- single dose toxicity [5]: high degree of safety
- effect on fertility [6]: did not affect fertility
- teratogenicity and genotoxicity [6]: neither teratogenic nor genotoxic
- pH of maximum solubility in aqueous solution [7]: ≤ 2
- aqueous solubility above pH 6 ([7]; above pH 6): sparingly soluble
- in vivo half-life [8]: approximately 3 hours
- cytotoxic activity of T effector memory cells (T effector memory cells): enhances the cytotoxic activity
- tolerability of subcutaneous dose [9]: well tolerated
- dermal toxicity [10]: no deaths and no signs of toxicity other than mild transient erythema at the application site
- overt signs of toxicity (such as weight loss and ruffled fur) ([11]; 50 μL injections of 50 μg/mL imiquimod): not associated with overt signs of toxicity
- increase in survival time at maximum inhibition of tumor growth ([11]; intratumoral, 50 μL injections of 50 μg/mL imiquimod (p<0.05)): > 50%
- growth of tumor ([11]; only locally (intratumoral) delivered): consistently and significantly retarded the growth of tumor
- dose with no treatment related effects on embryofetal toxicity or teratogenicity [12]: 2 mg/kg/day
- systemic exposure [13]: minimal systemic exposure
- subcutaneous lethal dose [14]: 20 mg/kg

Molecule: CCOCc1nc2c(N)nc3ccccc3c2n1CC(C)(C)O [resiquimod]
- IgM and IgG production by IL-2 stimulated B cells (IL-2 stimulated B cells): synergistically enhance IgM and IgG production

Molecule: polyethylene glycol 4000 [PEG 4000]
- Safety Factor (excipient dose from approved drug vs excipient dose from NP) [1]: 2-fold
